Test results taken from patent publication US9004743B2, “Mixing device for creating an output mixture by mixing a first material and a second material” (Revalesio Corporation, priority 2006, dated 2015).
Where two headings read alike, the source gives them in different places.

How the values were obtained:
[1] = system: Tilapia; conditions: cited from earlier work
[2] = system: glutathione peroxidase; test: Glutathione peroxidase study; assay type: biochemical; conditions: A340 nm, 25 degrees Celsius
Procedure: The inventive oxygen-enriched output fluid material was tested for the presence of hydrogen peroxide by testing the reactivity with glutathione peroxidase using a standard assay (Sigma). Briefly, glutathione peroxidase enzyme cocktail was constituted in deionized water and the appropriate buffers. Water samples were tested by adding the enzymatic reagents. Continuous spectrophotometric rate determination was made at A340 nm, and room temperature (25 degrees Celsius).

Compound | final increase in weight of the fish ([1]; high dissolved oxygen levels (approximately 7.0 ppm)) [grams] | final increase in weight of the fish ([1]; low DO levels (less than 2 ppm)) [g] | reduction in growth rates ([1]; low DO versus high DO) [%] | final increase in weight of the fish ([1]; mid-level DO (approximately 3.5 ppm)) [grams] | reduction in growth rates ([1]; mid-level DO versus high DO) [%] | reactivity with glutathione peroxidase [2]
O=O [dissolved oxygen, oxygen] | 19 | 1.5 | 92 | 5 | 74 | –
OO [hydrogen peroxide] | – | – | – | – | – | strong reactivity
